Results published in US6448256B1, “Antibiotic prodrugs” (University of Massachusetts, priority 1999, dated 2002).
≈ marks a conversion by molar mass, not a printed value. Where two headings read alike, the source gives them in different places.

Assays:
E. coli = experiment: MIC against E. coli (Gram-negative control); assay type: cell-based; settings: for MIC: Escherichia coli, Table 5, Gram-negative control
Description: (§1) To further investigate the antibacterial and/or DNA pol III inhibitory activity of various drug compounds, various ester-containing moieties N-linked to the EMAU core were produced as described in Example 1. These prodrugs were assayed for inhibition of B. subtilis DNA pol III and antibiotic activity against a number of bacteria.
(§2) The minimal inhibitory concentrations (MICs) of the four N3-substituted agents and EMAU were determined for B. subtilis (BS), methicillin-sensitive and resistant S. aureus (SA & MRSA), vancomycin-sensitive and resistant E. fecalis (EF& VREF), vancomycin-resistant E. fecium (VREF*), and E. coli (EC) as a Gram-negative control.

E. fecalis = experiment: MIC against E. fecalis; assay type: cell-based; settings: for MIC: Table 5, vancomycin-sensitive, read-out: MIC EF
Description: as §1, §2

B. subtilis = experiment: MIC against B. subtilis; assay type: cell-based; settings: for MIC: Bacillus subtilis, Table 5, read-out: MIC BS
Description: as §1, §2

EF pol III = EF pol III (Enterococcus faecalis, UniProt Q831W8); experiment: Inhibition of E. fecalis pol III (Ki); assay type: biochemical; settings: Table 4, average of 3 determinations, standard deviation 13.4%; read-out: KI EF pol III
Description: (§3) The competitive inhibitor constants (Ki) of selected EMAU compounds were determined with three different pol Ills: the pol III enzyme from Bacillus subtilis (BS pol III), and the pol III enzymes of the clinically relevant pathogens, Enterococcus fecalis (EF pol III) and Staphylococcus aureus (SA pol 111).

S. aureus = experiment: MIC against S. aureus (methicillin-sensitive); assay type: cell-based; settings: for MIC: Staphylococcus aureus
Description: as §1, §2

[1] = tested on: vancomycin-resistant E. fecalis; experiment: MIC against vancomycin-resistant E. fecalis (VREF); assay type: cell-based; settings: Table 5, vancomycin-resistant E. fecalis
Description: as §2

MRSA2 = experiment: MIC against methicillin-resistant S. aureus strain MRSA2; assay type: cell-based; settings: for MIC: Staphylococcus aureus, Table 5
Description: as §1, §2

[2] = tested on: vancomycin-resistant E. fecium; experiment: MIC against vancomycin-resistant E. fecium (VRE, VREF*); assay type: cell-based; settings: for MIC: Enterococcus, Table 5, vancomycin-resistant E. fecium
Description: as §1, §2

B. subtilis DNA pol III = B. subtilis DNA pol III (Bacillus subtilis, UniProt P13267); experiment: Inhibition of B. subtilis DNA pol III (Ki); assay type: biochemical
Chain of B. subtilis DNA pol III (P13267 whole entry): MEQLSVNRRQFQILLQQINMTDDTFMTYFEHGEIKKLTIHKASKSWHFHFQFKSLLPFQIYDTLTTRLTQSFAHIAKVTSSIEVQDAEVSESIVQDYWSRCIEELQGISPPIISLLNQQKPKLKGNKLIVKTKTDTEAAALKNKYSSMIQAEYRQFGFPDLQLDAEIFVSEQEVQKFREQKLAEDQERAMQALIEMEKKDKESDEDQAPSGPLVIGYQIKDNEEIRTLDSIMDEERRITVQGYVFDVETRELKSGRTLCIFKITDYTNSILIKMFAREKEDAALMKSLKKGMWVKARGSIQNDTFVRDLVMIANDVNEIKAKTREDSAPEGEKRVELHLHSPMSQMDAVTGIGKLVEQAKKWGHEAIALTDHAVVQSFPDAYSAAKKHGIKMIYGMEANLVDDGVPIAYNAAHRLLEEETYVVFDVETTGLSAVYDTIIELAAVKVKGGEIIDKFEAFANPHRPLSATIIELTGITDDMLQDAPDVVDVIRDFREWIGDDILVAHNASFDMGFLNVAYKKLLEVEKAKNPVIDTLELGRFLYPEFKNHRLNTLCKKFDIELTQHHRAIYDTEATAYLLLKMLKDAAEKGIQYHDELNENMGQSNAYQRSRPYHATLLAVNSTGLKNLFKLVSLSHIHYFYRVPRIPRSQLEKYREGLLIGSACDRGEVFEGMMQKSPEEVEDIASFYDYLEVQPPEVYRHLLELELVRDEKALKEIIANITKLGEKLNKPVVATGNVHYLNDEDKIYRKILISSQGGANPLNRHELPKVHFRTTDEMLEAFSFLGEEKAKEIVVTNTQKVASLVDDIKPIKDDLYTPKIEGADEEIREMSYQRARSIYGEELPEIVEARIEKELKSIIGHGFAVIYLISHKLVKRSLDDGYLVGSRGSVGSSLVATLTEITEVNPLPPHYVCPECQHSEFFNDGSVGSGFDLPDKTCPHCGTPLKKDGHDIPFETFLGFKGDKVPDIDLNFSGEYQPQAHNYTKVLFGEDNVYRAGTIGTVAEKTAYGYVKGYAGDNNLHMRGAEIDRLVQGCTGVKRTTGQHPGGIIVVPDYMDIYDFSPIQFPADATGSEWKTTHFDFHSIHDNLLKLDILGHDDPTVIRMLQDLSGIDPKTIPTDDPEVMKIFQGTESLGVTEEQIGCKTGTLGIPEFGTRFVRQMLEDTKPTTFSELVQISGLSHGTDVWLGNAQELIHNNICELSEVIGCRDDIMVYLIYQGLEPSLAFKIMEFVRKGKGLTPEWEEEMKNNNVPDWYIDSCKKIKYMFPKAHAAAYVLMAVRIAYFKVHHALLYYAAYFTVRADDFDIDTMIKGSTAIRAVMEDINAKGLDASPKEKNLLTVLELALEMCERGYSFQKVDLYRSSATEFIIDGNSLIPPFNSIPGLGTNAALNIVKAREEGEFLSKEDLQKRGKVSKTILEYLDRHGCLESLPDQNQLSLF
Description: as §1, §3

SA pol III = target: T1, SA pol III (Staphylococcus aureus, UniProt P0C1P9); experiment: Inhibition of S. aureus pol III (Ki); assay type: biochemical; settings: Table 4, average of 3 determinations, standard deviation 13.4%
T1 sequence (P0C1P9 1-1435): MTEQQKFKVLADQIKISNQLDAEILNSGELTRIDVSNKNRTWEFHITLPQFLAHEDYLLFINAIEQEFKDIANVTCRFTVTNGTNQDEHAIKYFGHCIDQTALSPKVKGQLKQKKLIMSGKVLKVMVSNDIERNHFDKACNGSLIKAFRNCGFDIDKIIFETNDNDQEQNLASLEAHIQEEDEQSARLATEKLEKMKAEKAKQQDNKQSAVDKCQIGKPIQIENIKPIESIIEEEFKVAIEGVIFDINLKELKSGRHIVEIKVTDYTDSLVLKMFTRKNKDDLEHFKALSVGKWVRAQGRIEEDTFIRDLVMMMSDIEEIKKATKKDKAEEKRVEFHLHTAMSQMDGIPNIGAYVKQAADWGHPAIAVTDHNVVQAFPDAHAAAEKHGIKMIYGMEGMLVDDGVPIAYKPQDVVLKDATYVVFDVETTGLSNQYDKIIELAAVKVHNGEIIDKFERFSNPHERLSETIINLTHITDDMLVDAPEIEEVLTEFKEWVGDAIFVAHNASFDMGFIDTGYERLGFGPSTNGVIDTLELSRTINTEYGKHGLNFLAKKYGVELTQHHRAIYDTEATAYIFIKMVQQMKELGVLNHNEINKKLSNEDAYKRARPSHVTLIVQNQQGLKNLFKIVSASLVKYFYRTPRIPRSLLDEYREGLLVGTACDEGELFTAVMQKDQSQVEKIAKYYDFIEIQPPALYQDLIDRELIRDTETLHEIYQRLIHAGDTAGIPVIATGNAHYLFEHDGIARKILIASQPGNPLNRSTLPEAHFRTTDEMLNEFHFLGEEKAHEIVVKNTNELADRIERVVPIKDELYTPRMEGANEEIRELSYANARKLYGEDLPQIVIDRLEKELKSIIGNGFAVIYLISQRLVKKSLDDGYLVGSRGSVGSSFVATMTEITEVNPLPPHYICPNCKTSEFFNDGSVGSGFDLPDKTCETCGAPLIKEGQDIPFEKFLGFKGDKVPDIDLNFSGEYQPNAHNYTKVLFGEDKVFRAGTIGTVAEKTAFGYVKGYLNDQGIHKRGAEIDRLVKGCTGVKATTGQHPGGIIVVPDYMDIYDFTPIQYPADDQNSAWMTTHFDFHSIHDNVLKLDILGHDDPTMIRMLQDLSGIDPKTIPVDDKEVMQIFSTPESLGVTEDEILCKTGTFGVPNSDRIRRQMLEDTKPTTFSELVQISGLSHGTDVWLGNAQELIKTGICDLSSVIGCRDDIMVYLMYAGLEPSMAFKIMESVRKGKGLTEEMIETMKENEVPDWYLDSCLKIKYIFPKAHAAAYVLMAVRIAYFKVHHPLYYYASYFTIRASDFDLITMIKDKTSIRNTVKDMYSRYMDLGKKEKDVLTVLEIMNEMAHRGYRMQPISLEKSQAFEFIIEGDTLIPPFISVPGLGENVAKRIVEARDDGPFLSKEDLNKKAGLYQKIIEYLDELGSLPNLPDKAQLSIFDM
Description: as §3

[3] = tested on: S. aureus (methicillin-sensitive Smith strain); experiment: ip/ip mouse protection against lethal S. aureus infection; assay type: in vivo, mice
Description: Step 1: Screening—Each candidate prodrug is screened for activity in an ip/ip S. aureus protection model. Candidates that display efficacy equivalent to that of HB-EMAU and HB-IMAU are selected for advanced pharmacokinetic analysis and application in the more relevant mouse thigh model of infection.
The efficacy of the propyl derivatives was tested against murine staphylococcal infection in vivo. A simple “ip/ip” system was used, in which 20 gram mice (10 each) were injected ip (intraperitoneally) with a lethal dose (2.3×10^7 CFU) of the methicillin-sensitive Smith strain of S. aureus. The mice were then immediately injected ip with the antibiotic agent as a 1:9 mixture of DMSO:peanut oil. Vancomycin was used as the positive control drug.
Both hydroxybutyl compounds were tested at 10 mg/kg in the mouse protection experiment against lethal S. aureus infection described in Example 4 above.

MRSA = experiment: MIC against methicillin-resistant S. aureus strain MRSA / MRSA1; assay type: cell-based; settings: for MIC: Staphylococcus aureus, MRSA, Table 5
Description: as §1, §2

E. fecium = experiment: MIC against E. fecium; assay type: cell-based; settings: Table 2
Description: as §1

Solubility in water = assay type: physicochemical; settings: 25° C.
Excerpt: The prodrug 3-(L-valylbutyl)-EMAU (Val-B-EMAU, 4a) was synthesized as a hydrochloride. The structure was confirmed by NMR. The compound had high solubility in water. […] Two different synthesis methods were used.

[4] = Plasma pharmacokinetics after intravenous administration to mice; assay type: in vivo; settings: mouse, plasma, intravenous, 25 mg/kg, tail vein, 25 mg/kg in saline (FIG. 1), read-out: half life of Val-B-EMAU in plasma
Description: (d) Elimination halfife and apparent volume of distribution. An appropriate dose of each agent (the maximum permitted by the results of the above dose/toxicity studies) is injected via the tail vein to a series of mice (e.g., 12). At specific times following injection (e.g., 10, 20, 30, 45, 90, and 150 minutes), mice (e.g., a pair) are restrained in DecapiCones and decapitated, and their blood collected individually by exsanguination into a sterile test tube.
The blood samples are centrifuged to yield clear plasma (yield: 0.4-0.6 ml per mouse). Approximately 0.2 ml of the plasma sample are used for HPLC analysis, using conditions established herein for quantitation of the compound. The individual plasma levels for each time point are averaged, and the data are analyzed to estimate Vd and half-life by established methods (Gibaldi, M. and D. Perrier. Pharmacokinetics. Marcel Dekker, Inc., New York, 1975).
Solutions of Val-B-EMAU in saline were next injected into the tail veins of mice at a dose of 25 mg/kg body weight. Animals were sacrificed at various times after dosing, and plasma was isolated and subjected to HPLC analysis.
Each value plotted in FIG. 3 represents the average of four measurements, each in a different animal.

[5] = Prodrug conversion in mouse plasma in vitro (HPLC); assay type: in vitro ADME
Description: (§4) The conversion rate of prodrugs can be measured by first establishing a reverse phase HPLC method for the detection of both prodrug and drug in a biological sample such as plasma or serum. A stock solution of prodrug, usually in saline, is diluted 1:5 in animal plasma or saline. […] If necessary, the sample can be thawed in a 37° C. water bath. Aliquots of the diluted sample are taken at 15, 30, 45, 60, 90, 120, and 180 minutes. Longer time points are usually needed for saline solutions because the rates of spontaneous hydrolysis are much longer than for enzyme-catalyzed hydrolysis. The aliquots are analyzed at a 1:10 dilution using HPLC, and the fraction of prodrug which has been converted at each time point calculated.
(§5) The rate of formation of the drug and the rate of decay of the prodrug had doubling and half-life times, respectively, of about 30 minutes. In contrast, the estimated half-life of Val-B-EMAU in physiological saline at 37° C. was greater then 5000 hours. The mechanism for the decomposition of Val-B-EMAU by plasma is presumed to involve esterases in the circulation.
(§6) To further define the conversion rate of Val-B-EMAU (4a), the prodrug was incubated in 80% mouse plasma.

[6] = Prodrug stability in physiological saline; assay type: physicochemical
Description: as §4, §5, §6

[7] = Table 5, methicillin-sensitive, read-out: MIC SA
[8] = Table 4, average of 3 determinations, standard deviation 13.4%, read-out: KI Bs pol III

SMILES	MIC (E. coli)	MIC (E. fecalis)	MIC (B. subtilis)	Ki (EF pol III)	MIC (S. aureus; [7])	MIC [1]	MIC (MRSA2)	MIC [2]	Ki (B. subtilis DNA pol III; [8])	Ki (SA pol III)	MIC (MRSA)	further results
CCc1cc(Nc2cc(=O)n(CCCO)c(=O)[nH]2)ccc1C [HP-EMAU]	> 35 µg/mL	4.1 µg/mL (≈ 13.5 µM)	1 µg/mL (≈ 3.3 µM)	140 nM	4.1 µg/mL (≈ 13.5 µM)	4.1 µg/mL (≈ 13.5 µM)	8.3 µg/mL (≈ 27.4 µM)	4.1 µg/mL (≈ 13.5 µM)	330 nM	420 nM	8.3 µg/mL (≈ 27.4 µM)	animals protected ([3]; 5 mg/kg ip): 70%; protection of mice ([3]; 10 mg/kg ip, 10 mice, 2.3×10^7 CFU S. aureus Smith ip, DMSO:peanut oil 1:9): protected all mice
CCc1cc(Nc2cc(=O)n(CCCCOC(=O)[C@@H](N)C(C)C)c(=O)[nH]2)ccc1C [Val-B-EMAU, 3-(L-valylbutyl)-EMAU]	–	–	–	–	–	–	–	–	–	–	–	MIC E. coli (E. coli; Table 2): >33 μ/ml; MIC E. fecalis (E. fecalis; Table 2): 17 μ/ml; MIC B. subtilis (B. subtilis; Table 2): 4 μ/ml; MIC E. fecium (E. fecium): 33 μ/ml; MIC (S. aureus; Table 1, read-out: MIC S. aureus): < 20 µg/mL; MIC S. aureus (S. aureus; Table 2): 17 μ/ml; solubility (Solubility in water): > 10000 µg/mL; half-life [4]: 34 min; half-life ([5]; 80% mouse plasma, 37° C. (FIG. 2), read-out: prodrug half-life): 37.8 min; half-life ([5]; mouse plasma, 37° C., HPLC, read-out: half-life of decay of the prodrug): ~30 min; MIC MRSA2 (MRSA2; Table 2): 33 μ/ml; half-life ([6]; 37° C., read-out: estimated half-life in physiological saline): > 208 days; half-life ([6]; b125, read-out: half-life in physiological saline): 18.8 to 20.8 days; MIC VRE ([2]; Table 2, vancomycin-resistant E. fecium): 8 μ/ml; Ki (B. subtilis DNA pol III; Table 1, read-out: Ki B. subtilis pol III): 530 nM; Ki (B. subtilis DNA pol III; Table 2, prodrugs having the EMAU core, read-out: Ki B. subtilis DNA Pol III): 530 nM; MIC MRSA (MRSA; Table 2): 33 μ/ml
CCc1cc(Nc2cc(=O)n(CCO)c(=O)[nH]2)ccc1C [HE-EMAU]	> 35 µg/mL	6.5 µg/mL (≈ 22.5 µM)	1.1 µg/mL (≈ 3.8 µM)	170 nM	8.7 µg/mL (≈ 30.1 µM)	8.7 µg/mL (≈ 30.1 µM)	17.4 µg/mL (≈ 60.1 µM)	8.7 µg/mL (≈ 30.1 µM)	200 nM	980 nM	17.4 µg/mL (≈ 60.1 µM)	–
